Measurements published in patent publication US10934283B2, “COMT inhibiting methods and compositions” (LIEBER INSTITUTE FOR BRAIN DEVELOPMENT, priority 2015, dated 2021).

system: not given; test: not given; details: clinical use; Olanow and Watkins 2007; cited from earlier work

SMILES | liver injury
Cc1ccc(C(=O)c2cc(O)c(O)c([N+](=O)[O-])c2)cc1 [tolcapone] | serious liver injury, including three deaths

system: not given; test: not given; details: Russ, et al. 1999; cited from earlier work

SMILES | brain penetration
CCN(CC)C(=O)/C(C#N)=C/c1cc(O)c(O)c([N+](=O)[O-])c1 [entacapone] | negligible
Cc1ccc(C(=O)c2cc(O)c(O)c([N+](=O)[O-])c2)cc1 [tolcapone] | low but measurable

system: not given; test: not given; details: Nutt and Fellman 1984; cited from earlier work

SMILES | percentage of exogenously administered L-DOPA that reaches the brain [%]
N[C@@H](Cc1ccc(O)c(O)c1)C(=O)O [L-DOPA, L-dihydroxyphenylalanine] | ~1

molecular target: T1, catechol-O-methyltransferase (COMT) (Homo sapiens, UniProt P21964); test: COMT inhibition assay (HTRF, production of SAH from SAM); type: biochemical; details: table does not say MB-COMT or S-COMT
T1 construct: M51A variant) was expressed in HEK 293F cells
T1 sequence (P21964 52-271 limits assumed): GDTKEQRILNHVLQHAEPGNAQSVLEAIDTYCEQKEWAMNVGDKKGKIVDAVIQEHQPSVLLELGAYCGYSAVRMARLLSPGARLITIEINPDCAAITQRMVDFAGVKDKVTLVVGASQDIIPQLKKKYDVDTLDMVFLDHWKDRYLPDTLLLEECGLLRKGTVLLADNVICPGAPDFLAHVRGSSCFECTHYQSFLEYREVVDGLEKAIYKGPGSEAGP
How it was run: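 Membranes from HEK293F cells expressing MB-COMT (M51A variant) incubated with 20 μM SAM and 1.5 μM dopamine plus compound (10 concentrations) for 40 min at 37 °C; S-COMT (Val158) at 0.15 ng/well used 100 μM dopamine, 15 min. SAH measured by HTRF against a standard curve; pIC50 from 4-parameter logistic fit.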

SMILES | Activity range (pIC50)
O=c1cc2n(cc1O)CC(Cc1ccccc1)N(Cc1c(Cl)cccc1Cl)C2 (stereo not shown) [Example 129, 3-benzyl-2-(2,6-dichlorobenzyl)-7-hydroxy-1,2,3,4-tetrahydro-8H-pyrido[1,2-a]pyrazin-8-one] | ++ (two plus signs (++) is associated with a pIC50 of from about 6 to 7)
CC1Cn2cc(O)c(=O)cc2CN1Cc1ccc(OC(F)(F)F)cc1 (stereo not shown) [Example 130, 7-hydroxy-3-methyl-2-[4-(trifluoromethoxy)benzyl]-1,2,3,4-tetrahydro-8H-pyrido[1,2-a]pyrazin-8-one] | ++ (two plus signs (++) is associated with a pIC50 of from about 6 to 7)
CC1Cn2cc(O)c(=O)cc2CN1Cc1ccccc1 (stereo not shown) [Example 131, 2-benzyl-7-hydroxy-3-methyl-1,2,3,4-tetrahydro-8H-pyrido[1,2-a]pyrazin-8-one] | ++ (two plus signs (++) is associated with a pIC50 of from about 6 to 7)
O=c1cc2n(cc1O)CC(CCc1ccccc1)N(Cc1ccccc1)C2 (stereo not shown) [Example 132, 2-benzyl-7-hydroxy-3-(2-phenylethyl)-1,2,3,4-tetrahydro-8H-pyrido[1,2-a]pyrazin-8-one] | +++ (three plus signs (+++) is associated with a pIC50 of above about 7)
O=c1c(O)cn2c(c1Cl)CN(Cc1c(F)cccc1Cl)CC2 [Example 133, 9-chloro-2-(2-chloro-6-fluorobenzyl)-7-hydroxy-1,2,3,4-tetrahydro-8H-pyrido[1,2-a]pyrazin-8-one] | +++ (three plus signs (+++) is associated with a pIC50 of above about 7)
O=c1cc2n(c(F)c1O)CCN(Cc1ccccc1Cl)C2 [Example 134, 6-fluoro-7-hydroxy-2-[[2-chlorophenyl]methyl]-3,4-dihydro-1H-pyrido[1,2-a]pyrazin-8-one] | ++ (two plus signs (++) is associated with a pIC50 of from about 6 to 7)
O=c1cc2n(c(F)c1O)CCN(Cc1ccc(OC(F)(F)F)cc1)C2 [Example 135, 2-[(4-(trifluoromethoxy)phenyl)methyl]-6-fluoro-7-hydroxy-3,4-dihydro-1H-pyrido[1,2-a]pyrazin-8-one] | ++ (two plus signs (++) is associated with a pIC50 of from about 6 to 7)
CCc1ccc(CN2CCn3cc(O)c(=O)c(Cl)c3C2)cc1 [Example 136, 9-chloro-2-(4-ethylbenzyl)-7-hydroxy-1,2,3,4-tetrahydro-8H-pyrido[1,2-a]pyrazin-8-one] | +++ (three plus signs (+++) is associated with a pIC50 of above about 7)
O=c1c(O)cn2c(c1Cl)CN(Cc1ccccc1Cl)CC2 [Example 137, 9-chloro-2-[(2-chlorophenyl)methyl]-7-hydroxy-3,4-dihydro-1H-pyrido[1,2-a]pyrazin-8-one] | +++ (three plus signs (+++) is associated with a pIC50 of above about 7)
CCc1ccc(CN2CCn3cc(O)c(=O)c(Br)c3C2)cc1 [Example 138, 9-bromo-2-(4-ethylbenzyl)-7-hydroxy-1,2,3,4-tetrahydro-8H-pyrido[1,2-a]pyrazin-8-one] | +++ (three plus signs (+++) is associated with a pIC50 of above about 7)
O=c1c(O)cn2c(c1Br)CN(Cc1ccccc1Cl)CC2 [Example 139, 9-bromo-2-[(2-chlorophenyl)methyl]-7-hydroxy-3,4-dihydro-1H-pyrido[1,2-a]pyrazin-8-one] | +++ (three plus signs (+++) is associated with a pIC50 of above about 7)
O=c1c(O)cn2c(c1I)CN(Cc1ccccc1Cl)CC2 [Example 140, 2-[(2-chlorophenyl)methyl]-7-hydroxy-9-iodo-3,4-dihydro-1H-pyrido[1,2-a]pyrazin-8-one] | + (a single plus (+) is associated with a pIC50 of from about 4.5 to 6)
CCc1ccc(CN2CCn3cc(O)c(=O)c(C4CC4)c3C2)cc1 [Example 141, 9-cyclopropyl-2-(4-ethylbenzyl)-7-hydroxy-1,2,3,4-tetrahydro-8H-pyrido[1,2-a]pyrazin-8-one] | ++ (two plus signs (++) is associated with a pIC50 of from about 6 to 7)
O=c1c(O)cn2c(c1C1CC1)CN(Cc1ccccc1Cl)CC2 [Example 142, 2-[(2-chlorophenyl)methyl]-9-cyclopropyl-7-hydroxy-3,4-dihydro-1H-pyrido[1,2-a]pyrazin-8-one] | +++ (three plus signs (+++) is associated with a pIC50 of above about 7)

molecular target: T2, aromatic amino acid decarboxylase (AAAD) (Homo sapiens, UniProt P20711); test: not given; details: given with L-DOPA; Nutt, Woodward et al. 1985; cited from earlier work
T2 sequence (P20711 1-480): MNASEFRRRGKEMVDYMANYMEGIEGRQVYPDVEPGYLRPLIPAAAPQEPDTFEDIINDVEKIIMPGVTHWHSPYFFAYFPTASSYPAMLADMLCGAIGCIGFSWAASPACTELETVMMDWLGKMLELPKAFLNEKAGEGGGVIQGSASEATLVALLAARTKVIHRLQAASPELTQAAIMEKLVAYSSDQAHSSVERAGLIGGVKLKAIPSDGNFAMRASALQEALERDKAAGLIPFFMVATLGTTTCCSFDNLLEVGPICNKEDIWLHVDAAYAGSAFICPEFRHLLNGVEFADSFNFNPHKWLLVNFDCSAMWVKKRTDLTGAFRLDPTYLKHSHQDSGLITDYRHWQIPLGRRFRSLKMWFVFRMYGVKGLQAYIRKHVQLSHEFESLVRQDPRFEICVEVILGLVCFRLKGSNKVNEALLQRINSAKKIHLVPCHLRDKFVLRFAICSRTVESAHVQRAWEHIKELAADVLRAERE

SMILES | reduction of the efficacious L-DOPA dose
C[C@@](Cc1ccc(O)c(O)c1)(NN)C(=O)O [Carbidopa] | 60-80%
